Results published in ChEMBL document CHEMBL3132755, “Phage display libraries of differently sized bicyclic peptides” (Medchemcomm, 2013).

These compounds were tested against Urokinase-type plasminogen activator (Homo sapiens, UniProt P00749) (assay: Inhibition of human uPA using Z-Gly-Gly-Arg-AMC as substrate after 30 mins by fluorescence assay).

| Compound | Ki [µM] |
| --- | --- |
| CC(C)C[C@@H]1NC(=O)[C@H]([C@@H](C)O)NC(=O)[C@H](CCCNC(=N)N)NC(=O)[C@H](C)NC(=O)[C@H]([C@@H](C)O)NC(=O)[C@@H]2CSCc3cc(cc(c3)CSC[C@@H](C(=O)NCC(=O)O)NC1=O)CSC[C@H](NC(=O)[C@H](C)N)C(=O)N[C@@H](CCCCN)C(=O)N[C@@H](CCC(N)=O)C(=O)N[C@@H](CO)C(=O)N[C@@H](C(C)C)C(=O)N2 | 8.67 |
| C[C@H](N)C(=O)N[C@H]1CSCc2cc3cc(c2)CSC[C@@H](C(=O)NCC(=O)O)NC(=O)[C@@H]2CCCN2C(=O)[C@H](Cc2ccccc2)NC(=O)[C@H](CCCNC(=N)N)NC(=O)[C@H](C)NC(=O)[C@H]([C@@H](C)O)NC(=O)[C@H](CSC3)NC(=O)[C@H](CC(=O)O)NC(=O)[C@H](CO)NC(=O)[C@H](Cc2cnc[nH]2)NC(=O)[C@H](CCCCN)NC1=O | 26.8 |
| CSCC[C@@H]1NC(=O)[C@H]([C@@H](C)O)NC(=O)[C@H](Cc2ccccc2)NC(=O)[C@H](CCCCN)NC(=O)[C@@H]2CSCc3cc(cc(c3)CSC[C@@H](C(=O)NCC(=O)O)NC1=O)CSC[C@H](NC(=O)[C@H](C)N)C(=O)N[C@@H](CCCNC(=N)N)C(=O)NCC(=O)NCC(=O)N2 | 23.5 |
| CC(C)C[C@@H]1NC(=O)[C@H](C(C)C)NC(=O)[C@H](CCC(N)=O)NC(=O)[C@H]([C@@H](C)O)NC(=O)[C@H](C)NC(=O)[C@@H]2CCCN2C(=O)[C@@H]2CSCc3cc(cc(c3)CSC[C@@H](C(=O)NCC(=O)O)NC1=O)CSC[C@H](NC(=O)[C@H](C)N)C(=O)N[C@@H]([C@@H](C)O)C(=O)N[C@@H](C)C(=O)N[C@@H](CCCNC(=N)N)C(=O)N[C@@H]([C@@H](C)O)C(=O)N2 | 48.7 |
| CSCC[C@@H]1NC(=O)[C@H](CCC(N)=O)NC(=O)[C@H](CO)NC(=O)[C@H](CO)NC(=O)[C@@H]2CCCN2C(=O)[C@H](CO)NC(=O)[C@@H]2CSCc3cc(cc(c3)CSC[C@@H](C(=O)NCC(=O)O)NC1=O)CSC[C@H](NC(=O)[C@H](C)N)C(=O)N[C@@H](CC(N)=O)C(=O)N[C@@H](CO)C(=O)N[C@@H](CCCNC(=N)N)C(=O)N[C@@H](Cc1ccccc1)C(=O)N[C@@H](C)C(=O)N[C@@H](CC(C)C)C(=O)N2 | 14.8 |

Compounds with a lower Ki, results first:

| Ki [µM] | Compound |
| --- | --- |
| 4.77 | CC(C)C[C@@H]1NC(=O)[C@@H](NC(=O)[C@H](C)N)CSCc2cc3cc(c2)CSC[C@@H](C(=O)NCC(=O)O)NC(=O)[C@H](CO)NC(=O)[C@@H]2CCCN2C(=O)[C@H](CCCNC(=N)N)NC(=O)[C@H](CCCNC(=N)N)NC(=O)[C@H](CC(N)=O)NC(=O)[C@H](CCC(=O)O)NC(=O)[C@H](CSC3)NC(=O)CNC(=O)[C@H](CCCNC(=N)N)NC(=O)[C@H](CCC(=O)O)NC(=O)CNC(=O)[C@H](CCC(N)=O)NC1=O |
| 1.48 | CC(C)C[C@@H]1NC(=O)[C@H](CO)NC(=O)[C@H](Cc2ccccc2)NC(=O)[C@H](CCCCN)NC(=O)[C@H](Cc2c[nH]c3ccccc23)NC(=O)[C@H](CC(N)=O)NC(=O)[C@@H](NC(=O)[C@H](C)N)CSCc2cc3cc(c2)CSC[C@H](NC1=O)C(=O)N[C@@H](CCC(=O)O)C(=O)N[C@@H]([C@@H](C)O)C(=O)N[C@@H](CCC(N)=O)C(=O)N[C@@H](CCCNC(=N)N)C(=O)N[C@@H](CC(N)=O)C(=O)N[C@@H](CCC(N)=O)C(=O)N[C@H](C(=O)NCC(=O)O)CSC3 |
| 0.9 | CC[C@H](C)[C@@H]1NC(=O)[C@H](CO)NC(=O)[C@H](CO)NC(=O)[C@H](CCCNC(=N)N)NC(=O)CNC(=O)[C@H](CCCNC(=N)N)NC(=O)[C@@H]2CSCc3cc(cc(c3)CSC[C@@H](C(=O)NCC(=O)O)NC1=O)CSC[C@H](NC(=O)[C@H](C)N)C(=O)N[C@@H]([C@@H](C)O)C(=O)N[C@@H](CCC(=O)O)C(=O)N[C@@H](Cc1ccccc1)C(=O)N[C@@H](CCC(N)=O)C(=O)N[C@@H]([C@@H](C)O)C(=O)N[C@@H](CC(=O)O)C(=O)N2 |
| 0.71 | C[C@H](N)C(=O)N[C@H]1CSCc2cc3cc(c2)CSC[C@@H](C(=O)NCC(=O)O)NC(=O)[C@@H]2CCCN2C(=O)CNC(=O)CNC(=O)[C@H](CCCNC(=N)N)NC(=O)CNC(=O)[C@H](CCCNC(=N)N)NC(=O)[C@H](CSC3)NC(=O)[C@H](CC(=O)O)NC(=O)[C@H]([C@@H](C)O)NC(=O)[C@H](C)NC(=O)[C@H](C)NC(=O)[C@H](Cc2cnc[nH]2)NC(=O)[C@H](CC(N)=O)NC1=O |
